{"source": "paper PMC5976192", "about": "“Design of a glutamine substrate tag enabling protein labelling mediated by Bacillus subtilis transglutaminase” (PLoS ONE, 2018)", "target": "T1, bTG (Bacillus subtilis transglutaminase) (Bacillus subtilis, UniProt P40746)", "T1 construct": "gene tgl; recombinant, expressed in E. coli in active form and purified; about 28 kDa; construct details only in S1 File", "T1 sequence (P40746 1-245)": "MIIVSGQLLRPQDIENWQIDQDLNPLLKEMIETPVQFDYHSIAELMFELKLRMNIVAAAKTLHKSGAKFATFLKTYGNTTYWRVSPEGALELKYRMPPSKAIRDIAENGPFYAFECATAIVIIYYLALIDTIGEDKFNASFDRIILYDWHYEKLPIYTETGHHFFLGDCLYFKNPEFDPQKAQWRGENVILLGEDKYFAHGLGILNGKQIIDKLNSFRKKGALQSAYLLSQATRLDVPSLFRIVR", "assay": "GDH-coupled assay; fluorescent labelling on SDS-PAGE", "format": "biochemical", "conditions": "acyl acceptor at 5 mM; 0.8 μM Q-tagged mRuby2 as acyl donor; 0.1 U bTG; 20 min; gel labelling 3 h at 37 °C; initial rates only", "data": [{"smiles": "CN(C)c1cccc2c(S(=O)(=O)NCCCCCN)cccc12", "note": "[dansyl-cadaverine]", "values": [{"measurement": "GDH-coupled assay; fluorescent labelling on SDS-PAGE", "value": "initial rates of transamidation between Q-tagged mRuby2 and dansyl-cadaverine were measured using the GDH-coupled assay"}]}]}
